Laboratory results published in patent US20180246105A1, “IMMUNOLOGICAL TEST KIT FOR […] EFFICACY AND STORAGE METHOD THEREOF” (priority 2015, published 2018).
Entries after “also recorded” stand apart in the source; their conditions may differ.

Key:
[1] = system: T cell subsets (Th1, Th2, Th17, Treg, Tc1, Tc17); test: T-lymphocyte subset proportions and subset ratios during treatment; format: in vivo, human
Source text: From the previous results, a T cell responds heterogeneously. In order to intuitively understand the dynamic changes of different T cell subsets, IFN-γ^+ CD4^+ T cells were assigned into the Th1, IL-4^+ CD4^+ T cells as TH2, IL-17a producing CD4^+ T cells as TH17, Foxp3^+CD4^+ T cells Treg, and the CD8^+ T cells secreting different cytokines were classified as TC1 and […] by the same method.
In order to further obtain the effect of different therapies on cellular immunity, the TH1/Treg, Th2/Treg, Th17/Treg, and Th1/th2 was analyzed and plotted.

CD8+ T cells = test: Clinical cellular immune detection (10-day enrichment), CD8+ T cells re-stimulated with HBV-specific peptides; format: in vivo, human
Protocol: (§1) 7) Cell seeding and peptide stimulation. PBMC was re-suspended with 10% FBS-RPMI-1640 and seeded into 12-well plate with 1mL/well. Specific peptides were added at the same time with 1 μL per well. The plate was then incubated in 5% CO2, 37° C.
(§2) After five days incubation, 50 μL sample was taken from each well and stored at −80° C. Then added 500 ul 10% FBS-RPMI-1640 contained […], continued for another five days incubator.
(§3) 2) Stimulation. After 10 days enrichment, the cells in 12-well plate were transferred into a 1.5 mL EP tube. Centrifuge with 1500 rpm, 3 min. Discard supernatant and re-suspend with FBS-RPMI-1640 prepared in step 1. The suspended cells were then seeded into a 96-well plate, the plate was coated with PMA, N, CMV, S4, S8 and MIX, 90 uL/well with three repetitions. Then the plate was incubated in 5% CO2, 37° C. for 8 hours.
(§4) 3) Storage. After 8 hours incubation, the 96-well plate was set for centrifuge with 1500 rpm, 3 min. Discard supernatant and re-suspend with 200 μL cell freezing medium (10% DMSO with 90% FBS). Disassociation by pipetting 3 to 5 times and sealed with parafilm. And then set for gradient cryopreservation with 4° C. for 1 hour, at −20° C. for 40 min and at −80° C. thereafter.
(§5) 3) Cell surface marker staining Panel 1, CD4-APC; Panel 2, CD8-APC; Panel 3, CD4-FITC. The dose of antibody was as the recommended dose in the reagent manual. Plate was centrifuged with 1500 rpm, 3 min. Discard supernatant and re-suspend with staining buffer in 4° C. for 30 min.
6) Intracellular staining. […]
8) FACS detection. […] The result data was analyzed with FlowJo v7.6.3, and the results were shown as positive percentage.
Antigen specific cellular immunity may play an important role in chronic HBV treatment. […] After the cell was collected and re-stimulated by HBV-specific polypeptide for 8 hours, the levels of cytokines in CD4+ and CD8^+ T lymphocytes were detected by flow cytometry. IL-2, IL-4, IL-10, IL-17a, Foxp3, IFN-γ and TNF-α were analyzed in CD4^+ T cells, whereas IL-2, IL-17a, IFN-γ and TNF-α were analyzed in CD8^+ T lymphocyte.

CD4+ T cells = test: Clinical cellular immune detection (10-day enrichment), CD4+ T cells re-stimulated with HBV-specific peptides; format: in vivo, human
Protocol: as §1, §2, §3, §4, §5
6) Intracellular staining. Panel 1/Panel 2, IFN-g-PE, TNF-α-BV421, IL-17-APC/cy7, IL-2-FITC; Panel 3, FOXP3-APC, IL-4-BV421, IL-10-PE. The dose of antibody was at the recommended dose in the reagent manual. Re-suspend the cells with staining buffer in room temperature for 1.5 hour with shake.
8) FACS detection. The detection was conducted with BD LSR Fortessa (BD Bioscience, USA). The voltage and compensation may be well adjusted. The result data was analyzed with FlowJo v7.6.3, and the results were shown as positive percentage.
Antigen specific cellular immunity may play an important role in chronic HBV treatment. […] Peripheral Blood mononuclear cells (PBMC) were isolated and re-stimulated with HBV-specific polypeptide for 10-day enrichment. After the cell was collected and re-stimulated by HBV-specific polypeptide for 8 hours, the levels of cytokines in CD4+ and CD8^+ T lymphocytes were detected by flow cytometry. IL-2, IL-4, IL-10, IL-17a, Foxp3, IFN-γ and TNF-α were analyzed in CD4^+ T cells, whereas IL-2, IL-17a, IFN-γ and TNF-α were analyzed in CD8^+ T lymphocyte.

[2] = Clinical trial ChiCTR-TRC-13003254: serum ALT kinetics; format: in vivo, human; conditions: 48-week treatment and 72-week follow-up
Protocol: HBV DNA was not detected or the level decreased at least 2 log 10 IU/mL compared with the basement on weeks 12, 24, 36, 48 and 72; The AST and ALT level on weeks 12, 24, 36, 48 and 72; The histological response, with the inflammation and fibrosis should rate under level 1 of the liver on week 48.
Routine biochemistry (liver function, renal function); Blood cell analysis; Serum HBV DNA detection; HBVM detection; All the detection were conducted in the central laboratory of Huashan Hospital.

HBsAg = conditions: after five years of treatment; HBeAg positive CHB patients; cited from earlier work
[3] = 0 to 72 weeks, significant changes at 24th week

SMILES | change of TH1, TH2, TH17, TC1 and Tc17 cell proportions ([1]; 0 weeks to 72 weeks) | proportion of Treg cells in total T cell subsets ([1]; 48 weeks) | proportion of Treg cells in total T cell subsets ([1]; 72 weeks, follow-up endpoint) | proportion of Treg cells in total T cell subsets ([1]; baseline) | IFN-γ secreted by CD8+ T cells, dynamics (CD8+ T cells; HLA-A2+ or HLA-A2− S polypeptide re-stimulation, 0 to 72 weeks) | IL-17A of CD8+ T cells, dynamics (CD8+ T cells; S polypeptide pool stimulation) | IL-2 and TNF-α secreted by CD8+ T cells, dynamics (CD8+ T cells; S polypeptide re-stimulation, course of treatment) | Foxp3 expression in CD4+ T cells (Treg), dynamics (CD4+ T cells; [3]) | IL-10 secretion in CD4+ T cells, dynamics (CD4+ T cells; [3]) | Foxp3 expression in CD4+ T cells (Treg), dynamics (CD4+ T cells; 0 to 72 weeks, significant changes at 24th week, listed as Adv) | IL-4 in CD4+ T cells, dynamics (CD4+ T cells; S-polypeptide pool stimulation) | IFN-γ expression in CD4+ T cells, dynamics (CD4+ T cells; S-polypeptide pool stimulation, 0 to 72 weeks) | IL-2 and TNF-α in CD4+ T cells, dynamics (CD4+ T cells; S-polypeptide pool stimulation, course of treatment) | IL-17A in CD4+ T cells, dynamics (CD4+ T cells; peptide pool stimulation, course of treatment) | ALT level, change [2] | patients with HBsAg serotype transformed (HBsAg)
CC(C)(C)C(=O)OCOP(=O)(COCCn1cnc2c(N)ncnc21)OCOC(=O)C(C)(C)C [ADV, Adefovir Dipivoxil] | no significant changes | 25.8% | 37.8% | 37.7% | no difference | no significance | No significant difference | not significantly changed; also recorded: no significant fluctuation; also recorded: did not show significant fluctuation | no significant change | did not change significantly; also recorded: did not show significant fluctuation | no difference | no significant difference | no significant difference | no significant change | did not change significantly | –
C[C@H](Cn1cnc2c(N)ncnc21)OCP(=O)(O)O [Tenofovir] | – | – | – | – | – | – | – | – | – | – | – | – | – | – | – | 23 of 266
